From patent US20200405697A1, “Antitumor Agent” (Taiho Pharmaceutical Co., Ltd, priority 2017, published 2020)
pIC50: −log10 of the molar value. Blank lines part the entries; values can stand above or below the compound they belong to.

Assays:
[1] = target: T1, human RNR (histidine tagged human M1 and human M2 proteins) (Homo sapiens, UniProt P23921); test: Human RNR inhibition effect (dCDP formation from CDP); assay type: biochemical; conditions: 10 μM CDP, 37° C. for 30 minutes, read-out: RNR inhibitory activity IC50
T1 construct: made in house; host or cells: Escherichia coli
T1 sequence (P23921 1-792): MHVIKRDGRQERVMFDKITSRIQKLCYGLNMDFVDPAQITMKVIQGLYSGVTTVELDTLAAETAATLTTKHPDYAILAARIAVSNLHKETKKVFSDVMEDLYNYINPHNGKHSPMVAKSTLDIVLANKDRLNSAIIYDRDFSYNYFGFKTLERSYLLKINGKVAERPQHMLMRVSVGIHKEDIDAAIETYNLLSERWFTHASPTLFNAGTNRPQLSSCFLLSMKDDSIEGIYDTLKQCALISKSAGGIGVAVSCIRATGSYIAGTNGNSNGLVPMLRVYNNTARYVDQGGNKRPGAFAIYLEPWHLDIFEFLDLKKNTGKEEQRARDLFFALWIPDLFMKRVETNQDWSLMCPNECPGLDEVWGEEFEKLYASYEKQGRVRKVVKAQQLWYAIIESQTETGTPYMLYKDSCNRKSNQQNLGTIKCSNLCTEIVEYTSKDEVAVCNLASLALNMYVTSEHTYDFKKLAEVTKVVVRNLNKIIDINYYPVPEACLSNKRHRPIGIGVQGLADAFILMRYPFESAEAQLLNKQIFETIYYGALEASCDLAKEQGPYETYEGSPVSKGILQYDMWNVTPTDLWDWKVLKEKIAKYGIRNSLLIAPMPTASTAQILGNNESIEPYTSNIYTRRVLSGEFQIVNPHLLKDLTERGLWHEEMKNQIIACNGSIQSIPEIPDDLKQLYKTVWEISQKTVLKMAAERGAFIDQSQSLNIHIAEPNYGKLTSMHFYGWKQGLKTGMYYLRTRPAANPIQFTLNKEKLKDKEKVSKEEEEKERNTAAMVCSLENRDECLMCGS
Procedure, shortened: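 His-tagged human M1 (isoform 1) and N-terminal 59-aa-truncated M2 (isoform 2), E. coli-expressed, Ni-purified, preincubated 20 min with compound (1% DMSO). Reaction with 10 μM CDP, 2 mM ATP, 0.24 mM NADPH, 6 mM DTT, 4 mM Mg acetate, 100 mM KCl, 50 mM HEPES pH 7.2, 30 min at 37° C. dCDP formed quantified by reverse-phase HPLC after heat stop.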

[2] = test system: MV-4-11; test: Antitumor effect in human-derived blood cancer cell line (MV-4-11) subcutaneous transplantation model (in vivo); set-up: species or system nude mouse (BALB/cA Jcl-nu/nu); conditions: oral, 100 mg/kg/day once per day for 14 days; RTV vs control group, Student-t test, p<0.05
Experimental: A human-derived blood cancer cell line MV-4-11 was transplanted subcutaneously into a nude mouse (BALB/cA Jcl-nu/nu, CLEA Japan, Inc.), and at the time when the tumor volume of the nude mouse on which the engrafted tumor reached 100 to 300 mm^3, four mice were assigned to each group by random stratification so that the average of the tumor volumes of each group was uniform (day 0), and the Example compound was orally administered daily at 100 mg/kg/day once per day for 14 days. Example Compound dosing solutions were prepared using 0.5% HPMC.
An electric balance for animals was used in body weight measurement. Rate of change in body weight on day n (BWCn) from body weight on day n (BWn) was calculated according to the following equation.
Rate of change in body weight BWCn (%)=(BWn−BW0)/BW0×100
Tumor volume (TV) was calculated according to the following equation by sandwiching and measuring the major axis and the minor axis with a digital caliper.
Tumor volume (mm^3)=Major axis (mm)×Minor axis (mm)×Minor axis (mm)/2
In order to compare the chronological transition of proliferation of tumor for the administration of each compound, relative tumor volume (RTV) setting the tumor volume at the time of grouping as 1 as the tumor proliferation rate was calculated according to the following formula, and the transition of the average value of RTV of each individual are shown in FIGS. 1 to 4.
RTV=(tumor volume at the day of tumor volume measurement)/(tumor volume at the time of the grouping)

[3] = test system: CFPAC-1 (Human pancreatic cancer cell line); test: Effect of combination of sulfonamide compound and other antitumor agent (CellTiter-Glo, combination index): CFPAC-1;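 note: cells exposed to both agents together for 3 days, viability read by luminescence, normalized to vehicle-treated control wells, mean of triplicate wells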
Experimental: (§1) Each cell line was seeded at 90 L/well to a 96-well culture plate (Thermo Fisher Scientific, Inc.) according to the above tables. The cell-seeded plate was cultured in an incubator set to 37° C. and 500 CO2. On the day following seeding, varying concentrations of the sulfonamide compound and the other antitumor agent were added in combination to the cells. […] The serial dilutions of each compound, or DW was added at 5μL/well to the plate such that each compound and DW, or the sulfonamide compound and the other antitumor agent were combined. […] The plate after the addition was cultured at 37° C. for 3 days under 5% CO2 conditions.
(§2) Three days later, CellTiter-Glo(R) 2.0 Reagent (Promega Corporation) was added at 100 μL/well, and the amount of luminescence was measured using a plate reader EnSpire(R) Multimode Plate Reader (PerkinElmer Co., Ltd.).
(§3) An average value from 3 wells was calculated as to each drug condition from the obtained data, and cell survival rate normalized against control wells supplemented with the vehicle (DW) was calculated. A Fa (fractional inhibition) value was calculated by subtracting the cell survival rate from 1.

[4] = test system: A549 (Human lung cancer cell line); test: Effect of combination of sulfonamide compound and other antitumor agent (CellTiter-Glo, combination index): A549
[5] = test system: HCT116 (Human large intestine cancer cell line); test: Effect of combination of sulfonamide compound and other antitumor agent (CellTiter-Glo, combination index): HCT116; assay type: cell-based
Experimental: as §1, §2, §3

[6] = Example Compound 5 466 nM + SCH900776 253 nM
[7] = Example Compound 5 700 nM + SCH900776 379 nM
[8] = Example Compound 14 925 nM + SCH900776 253 nM
[9] = Example Compound 14 1390 nM + SCH900776 380 nM
[10] = Example Compound 14 2080 nM + SCH900776 569 nM
[11] = Example Compound 209A 226 nM + SCH900776 253 nM
[12] = Example Compound 209A 508 nM + SCH900776 568 nM
[13] = Example Compound 235A 321 nM + SCH900776 253 nM
[14] = Example Compound 235A 481 nM + SCH900776 379 nM
[15] = Example Compound 235A 722 nM + SCH900776 569 nM
[16] = Example Compound 14 874 nM + SCH900776 909 nM
[17] = Example Compound 14 1310 nM + SCH900776 1360 nM
[18] = Example Compound 14 1970 nM + SCH900776 2050 nM
[19] = Example Compound 14 2950 nM + SCH900776 3070 nM
[20] = Example Compound 209A 188 nM + SCH900776 909 nM
[21] = Example Compound 209A 282 nM + SCH900776 1360 nM
[22] = Example Compound 209A 635 nM + SCH900776 3070 nM
[23] = Example Compound 235A 231 nM + SCH900776 909 nM
[24] = Example Compound 235A 346 nM + SCH900776 1360 nM
[25] = Example Compound 235A 520 nM + SCH900776 2050 nM
[26] = Example Compound 235A 780 nM + SCH900776 3070 nM
[27] = Example Compound 235A 1170 nM + SCH900776 4610 nM
[28] = Example Compound 5 311 nM + Prexasertib 1.89 nM
[29] = Example Compound 5 466 nM + Prexasertib 2.84 nM
[30] = Example Compound 5 700 nM + Prexasertib 4.26 nM
[31] = Example Compound 14 616 nM + Prexasertib 1.89 nM
[32] = Example Compound 14 925 nM + Prexasertib 2.84 nM
[33] = Example Compound 14 1390 nM + Prexasertib 4.27 nM
[34] = Example Compound 209A 151 nM + Prexasertib 1.90 nM
[35] = Example Compound 209A 226 nM + Prexasertib 2.84 nM
[36] = Example Compound 235A 214 nM + Prexasertib 1.89 nM
[37] = Example Compound 235A 321 nM + Prexasertib 2.84 nM
[38] = Example Compound 235A 481 nM + Prexasertib 4.26 nM
[39] = Example Compound 14 874 nM + Prexasertib 1.97 nM
[40] = Example Compound 14 1310 nM + Prexasertib 2.96 nM
[41] = Example Compound 14 1970 nM + Prexasertib 4.45 nM
[42] = Example Compound 209A 188 nM + Prexasertib 1.97 nM
[43] = Example Compound 209A 282 nM + Prexasertib 2.96 nM
[44] = Example Compound 235A 231 nM + Prexasertib 1.97 nM
[45] = Example Compound 235A 346 nM + Prexasertib 2.96 nM
[46] = Example Compound 235A 520 nM + Prexasertib 4.44 nM
[47] = Example Compound 5 567 nM + Prexasertib 10.7 nM
[48] = Example Compound 5 851 nM + Prexasertib 16.1 nM
[49] = Example Compound 14 1000 nM + Prexasertib 7.14 nM
[50] = Example Compound 14 1500 nM + Prexasertib 10.7 nM
[51] = Example Compound 14 2250 nM + Prexasertib 16.1 nM
[52] = Example Compound 209A 187 nM + Prexasertib 7.13 nM
[53] = Example Compound 209A 281 nM + Prexasertib 10.7 nM
[54] = Example Compound 209A 421 nM + Prexasertib 16.1 nM
[55] = HCT116, Example Compound 235A 317 nM combined with Prexasertib 7.15 nM, molar ratio 1:0.02255
[56] = HCT116, Example Compound 235A 475 nM combined with Prexasertib 10.7 nM, molar ratio 1:0.02255
[57] = HCT116, Example Compound 235A 712 nM combined with Prexasertib 16.1 nM, molar ratio 1:0.02255

Structure (SMILES): Cn1cc(-c2cnn3c(N)c(Br)c([C@@H]4CCCNC4)nc23)cn1 [SCH900776]
CI value [3, 6]: 0.283
Fa value [3, 6]: 0.6428
CI value [3, 7]: 0.283
Fa value [3, 7]: 0.7803
CI value [3, 8]: 0.465
Fa value [3, 8]: 0.4714
CI value [3, 9]: 0.322
Fa value [3, 9]: 0.7231
CI value [3, 10]: 0.409
Fa value [3, 10]: 0.7671
CI value [3, 11]: 0.385
Fa value [3, 11]: 0.5579
CI value [3, 12]: 0.474
Fa value [3, 12]: 0.7649
CI value [3, 13]: 0.474
Fa value [3, 13]: 0.4978
CI value [3, 14]: 0.382
Fa value [3, 14]: 0.7223
CI value [3, 15]: 0.484
Fa value [3, 15]: 0.7722
CI value [4, 16]: 0.194
Fa value [4, 16]: 0.6512
CI value [4, 17]: 0.184
Fa value [4, 17]: 0.7883
CI value [4, 18]: 0.191
Fa value [4, 18]: 0.8714
CI value [4, 19]: 0.271
Fa value [4, 19]: 0.8814
CI value [4, 20]: 0.180
Fa value [4, 20]: 0.6553
CI value [4, 21]: 0.170
Fa value [4, 21]: 0.7965
CI value [4, 22]: 0.273
Fa value [4, 22]: 0.8744
CI value [4, 23]: 0.262
Fa value [4, 23]: 0.6135
CI value [4, 24]: 0.280
Fa value [4, 24]: 0.7038
CI value [4, 25]: 0.275
Fa value [4, 25]: 0.8035
CI value [4, 26]: 0.275
Fa value [4, 26]: 0.8771
CI value [4, 27]: 0.430
Fa value [4, 27]: 0.8705

Structure (SMILES): Cc1c(Cl)ccc(F)c1[C@@H](C)[C@H](NS(=O)(=O)c1ccc(Cl)c2c1OCCC2(C)O)c1n[nH]c(=O)o1 (single isomer, unassigned) [Example 228A]
antitumor effect (relative tumor volume, RTV) [2]: antitumor effect

Structure (SMILES): Cc1c(Cl)ccc(F)c1[C@@H](C)[C@H](NS(=O)(=O)c1ccc(Cl)cc1C(N)=O)c1n[nH]c(=O)o1 [Example 14, 5-chloro-2-(N-((1S,2R)-2-(3-chloro-6-fluoro-2-methylphenyl)-1-(5-oxo-4,5-dihydro-1,3,4-oxadiazol-2-yl)propyl)sulfamoyl)benzamide]
pIC50 [1]: 6.60
antitumor effect (relative tumor volume, RTV) [2]: antitumor effect

Structure (SMILES): COc1cccc(OCCCN)c1-c1cc(Nc2cnc(C#N)cn2)n[nH]1 [Prexasertib, prexasertib]
CI value [3, 28]: 0.579
Fa value [3, 28]: 0.3644
CI value [3, 29]: 0.413
Fa value [3, 29]: 0.6946
CI value [3, 30]: 0.525
Fa value [3, 30]: 0.7564
CI value [3, 31]: 0.886
Fa value [3, 31]: 0.2455
CI value [3, 32]: 0.452
Fa value [3, 32]: 0.6771
CI value [3, 33]: 0.514
Fa value [3, 33]: 0.7725
CI value [3, 34]: 0.735
Fa value [3, 34]: 0.3163
CI value [3, 35]: 0.558
Fa value [3, 35]: 0.6872
CI value [3, 36]: 0.645
Fa value [3, 36]: 0.3469
CI value [3, 37]: 0.344
Fa value [3, 37]: 0.6687
CI value [3, 38]: 0.372
Fa value [3, 38]: 0.7578
CI value [4, 39]: 0.277
Fa value [4, 39]: 0.4973
CI value [4, 40]: 0.193
Fa value [4, 40]: 0.7864
CI value [4, 41]: 0.177
Fa value [4, 41]: 0.8986
CI value [4, 42]: 0.258
Fa value [4, 42]: 0.5015
CI value [4, 43]: 0.189
Fa value [4, 43]: 0.7685
CI value [4, 44]: 0.331
Fa value [4, 44]: 0.4315
CI value [4, 45]: 0.191
Fa value [4, 45]: 0.7784
CI value [4, 46]: 0.174
Fa value [4, 46]: 0.8915
CI value [5, 47]: 0.289
Fa value [5, 47]: 0.7563
CI value [5, 48]: 0.180
Fa value [5, 48]: 0.9499
CI value [5, 49]: 0.535
Fa value [5, 49]: 0.3054
CI value [5, 50]: 0.208
Fa value [5, 50]: 0.8469
CI value [5, 51]: 0.174
Fa value [5, 51]: 0.9453
CI value [5, 52]: 0.792
Fa value [5, 52]: 0.1703
CI value [5, 53]: 0.230
Fa value [5, 53]: 0.8191
CI value [5, 54]: 0.173
Fa value [5, 54]: 0.9441
CI value [5, 55]: 0.557
Fa value [5, 55]: 0.3131
CI value [5, 56]: 0.224
Fa value [5, 56]: 0.8595
CI value [5, 57]: 0.197
Fa value [5, 57]: 0.9459

More lines, main results first:

pIC50 [1]: 7.10
Structure (SMILES): Cc1ccc(F)c([C@@H](C)[C@H](NS(=O)(=O)c2ccc(Cl)c3c2OCCC3O)c2n[nH]c(=O)o2)c1C (single isomer, unassigned) [Example 235A]
antitumor effect (relative tumor volume, RTV) [2]: antitumor effect

pIC50 [1]: 7.00
Structure (SMILES): Cc1c(Cl)ccc(F)c1[C@@H](C)[C@H](NS(=O)(=O)c1ccc(Cl)c2c1OCCC2(C)O)c1n[nH]c(=O)o1 (single isomer, unassigned) [Example 209A]
antitumor effect (relative tumor volume, RTV) [2]: antitumor effect
